In patent US10918891B2, “Cosmetic treatment method for the skin” (SYNTIVIA, priority 2016, dated 2021):

Columns and labels:
[1] = system: NativeSkin® skin explants (Genoskin); assay: Histological analysis (haematoxylin/eosin) of NativeSkin skin explant ex vivo after UVA irradiation; type: cell-based, human; settings: composition 0.9 mmol/L topical, 60 J/cm^2 UVA every day for 3 days, FIG. 5
Method: (§1) The test was carried out on NativeSkin® skin explants (Genoskin), a biopsy of skin bathed in a solid, nourishing matrix while its epidermal surface is preserved in contact with the air. The biopsy is firmly anchored in the matrix and sealed in order to prevent any lateral diffusion of formulation intended for topical application.
(§2) The study was carried out on a donor (phototype 2) under the following conditions.
(§3) The compounds tested are implemented in a composition containing them at 0.9 mmol/L in a mixture of Carbopol® (0.5% p/p), DMSO (0.1% p/p) and H2O (qsp 100%).
(§4) The samples are irradiated at 60 J/cm^2 UVA every day for 3 days. A treatment is carried out for 24 h before the irradiation, by application of the composition tested onto the sample (deposition of 40 μl of composition onto the stratum corneum), then a post-treatment of 24 h after the irradiation, in the same manner.
(§5) A Control of the sample of skin non-irradiated and a Control of the sample of skin irradiated are also carried out, both with application of the vehicle alone (0.5% Carbopol®, 0.1% DMSO, H2O). The Control of the non-irradiated sample of skin is introduced into the irradiator in a sheet of aluminium, in such a way as to protect it against UVs.
(§6) The samples are sampled, cut (according to the conventional method of cryo-sectioning implementing paraffin and freezing) and fixed in 1 ml of formalin for 24 h.
(§7) The explants are then included in paraffin and sections of 5 μm are made.
The slides are then coloured with haematoxylin (basic compound marking the nuclei) and eosin (acidic compound marking the conjunctive tissue).
(§8) The analysis of the marking is carried out with a DM5000B fluorescence microscope (Leica Microsystems) and 10 images are acquired for each sample.

[2] = system: NativeSkin® skin explants (Genoskin); assay: Breaks in the DNA (γ-H2AX marking) of NativeSkin skin explant ex vivo after UVA irradiation; type: cell-based, human; settings: composition 0.9 mmol/L topical, 60 J/cm^2 UVA every day for 3 days, n=10 images, FIG. 7
Method: as §1, §2, §3, §4, §5, §6, §7
The slides obtained are also marked by immunohistochemistry with the biomarker γ-H2Ax.
as §8
For the marking with γ-H2Ax, for each image, the total number of nuclei is detected with 4′,6-diamidino-2-phenylindole (dapi). In the same image, the number of nuclei having the marking is quantified. The ratio of the number of positive nuclei, multiplied by 100, to the number of total nuclei, is calculated, in order to obtain a percentage (=(positive nuclei*100)/total nuclei), n=10 per sample.
A statistical analysis is carried out with a student's test by comparing the samples to the control (p value[…], p value<0.05**, p value<0.005***, ns not significant).

[3] = system: NHEK cells; assay: Survival (WST1) of NHEK keratinocytes exposed to cigarette extract, comparison with caffeic acid; type: cell-based, human; settings: compound 10 ppm pretreatment 24 h and treatment 24 h, cigarette extract 1/50, cigarette extract alone 55% survival, FIG. 4
Method: This study aims to compare the protective or repairing effect of the compounds according to the invention (Ia) and (Ib) with respect to the damage induced on the skin by a cigarette extract. For comparison, caffeic acid (supplier: Acros) is also tested. This acid forms a basic unit of the compounds (Ia) and (Ib) according to the invention.
The NHEK cells are inoculated in a 96-well plate in a suitable medium (Promocell), at a rate of 9000 cells per well, and incubated 24 h at 37° C. and 5% carbon dioxide.
The compounds to be tested are prepared as follows: • (Ia): 10 mg of compound+909 μL of DMSO • (Ib): 7 mg of compound+636 μL of DMSO • caffeic acid: 10 mg of compound+909 μL of DMSO
Each stock solution above is diluted 1000 times, to 10 ppm in the culture medium, then the solutions obtained are filtered by means of a nylon filter (0.22 μm). The final solutions are concentrated to 10 ppm in 0.1% DMSO.
Solutions at 20 ppm in 0.2% DMSO are also prepared in a similar manner, for dilution in the cigarette extract.
An extract of 20 cigarettes is prepared as indicated in example 14 above. This extract is then diluted to 1/50 in the culture medium; or to 2/50 in the culture medium, then to 1/2 in the culture medium, to which the compound to be tested is added at 20 ppm.
The cells are pretreated for 24 h with the compound to be tested at 10 ppm in the culture medium.
The cells are then treated with the cigarette extract diluted to 1/50th with or without the compound tested at 10 ppm for 24 h.
3 h before the end of the test, 10 μl of WST1 cellular proliferation reactant (Roche) are added into each well. The absorbance at 450 nm is measured before and after the addition of WST1 reactant, by means of a Multiskan® reader. The treated cells are compared to the untreated cells and to the cells exposed to the cigarette extract.

[4] = system: IL-8; assay: IL-8 assay (ELISA) in culture supernatants of NHEK after induction with IL-1β; type: cell-based, human; settings: IL-1β 10 ng/ml 24 h, then substance 24 h, compound (Ia) 3 ppm, dexamethasone 0.4 ppm, CTL 0.23, CTL without IL-1β 0.06
Method: This study is carried out on normal human Keratinocytes (NHEK).
In this example, the anti-inflammatory properties of the compound (Ia) are evaluated by the assay of the IL-8, after the application of the cytokine IL-1β at 10 ng/ml onto NHEKs. IL-8 is a major inflammatory cytokine produced first of all during the inflammatory response of the keratinocytes. The quantification of the IL-8 in the culture supernatants allows an evaluation of the inflammatory state of the cells.
The IL-1β is added to the culture medium of the NHEKs at a rate of 10 ng/ml for 24 h. After incubation, the culture media are removed and replaced with culture media containing the compound (Ia) at 3 ppm. After 24 h of incubation, the supernatants are collected.
The reference anti-inflammatory element is dexamethasone (Sigma) used at 0.4 ppm. A control having undergone the same experimental conditions without the compound (Ia) (CTL), as well as a non-induced control (CTL without IL-1β), are also carried out.
The quantification of the IL-8 in 50 μl of the culture supernatants is measured by an ELISA test (human CXCL8/IL-8 Immunoassay, R&D Systems).
Each treatment is carried out in triplicate.

[5] = system: normal human Keratinocytes (NHEK); assay: Reactive oxygen species (H2DCFDA probe) in NHEK after single UVA stress; type: cell-based; settings: 24 h incubation; (Ia) 3 ppm, Trolox 20 ppm, Quercetin 18 ppm; UVA 10 J/cm2; normalised to viability (MTS); CTL UVA 289687.6, CTL without stress 16441.9
Method: The cells used for this example are normal human Keratinocytes (NHEK).
The antioxidant properties (neutralising the production of reactive oxygen species) of the compound (Ia) are evaluated after a single stress with UVAs on NHEKs, by a test based on the use of the fluorescent probe H2DCFDA on a triple culture.
H2DCFDA (2′-7′dichlorodihydrofluorescein diacetate, Fischer Scientific) is a probe that, after having diffused into the cell and after its acetate group has been split by intracellular esterases, can be oxidised by free radicals (H2O2) into DCF (2′-7′ dichlorofluorescein), a fluorescent compound. The production of the free radicals can thus be quantified by the level of fluorescence emitted by the oxidised probe. The more the cell produces free radicals, the higher the level of fluorescence detected.
After 24 hours of incubation with the compound (Ia) (3 ppm in an aqueous solution with 0.1% dimethylsulfoxide) or the reference elements, the cells are placed in the presence of the H2DCFDA probe at 3 ppm for 1 hour at 37° C., 5% CO2 in order to allow its intracellular diffusion.
The reference antioxidant elements are: Trolox ([…], Sigma), at 20 ppm and Quercetin (quercetin dihydrate, Sigma), at 18 ppm.
After one rinsing, the cells are subjected to a single stress with UVAs (in the absence of compound (Ia)) at a rate of 10 joules per square centimetre. The quantification of the fluorescence emitted (excitation: 485 nm; emission: 520 nm) is carried out immediately after the end of the UVA stress. […]
In order to provide a result representative of the cellular population of each condition after a single stress with UVAs, a cellular viability test (MTS) is carried out immediately after the quantification of the fluorescence emitted. The fluorescence values are thus normalised with respect to the cellular viabilities in order for it to be possible to compare the levels of fluorescence of the various conditions to each other.

Structure (SMILES) | Morphology of the epidermis after UVA irradiation (histological analysis) [1] | percentage of nuclei positive for marking with γ-H2AX, compared with controls [2] | % survival of the cells [3] | Quantification of the IL8 (optical density) [4] | Assay of the fluorescence with H2DCFDA after irradiation of NHEKs with UVAs [5]
Cc1ncc(CO)c(CNC(=O)CCCC[C@@H]2CCSS2)c1O [Comp.1, reference compound] | phenotype of the irradiated sample is also found | level similar to the irradiated sample | – | – | –
COc1cc(/C=C/C(=O)NCc2c(CO)cnc(C)c2O)ccc1O [Compound (Ib), (E)-3-(4-hydroxy-3-methoxyphenyl)-N-((3-hydroxy-5-(hydroxymethyl)-2-methylpyridin-4-yl)-methyl)-acrylamide] | – | – | 76% | – | –
COc1ccc(/C=C/C(=O)NCc2c(CO)cnc(C)c2O)cc1O [Compound (Ic), (E)-3-(3-hydroxy-4-methoxyphenyl)-N-((3-hydroxy-5-(hydroxymethyl)-2-methylpyridin-4-yl)-methyl)-acrylamide] | totally protected | same phenotype as the non-irradiated control sample | – | – | –
Cc1ncc(CO)c(CNC(=O)/C=C/c2ccc(O)cc2)c1O [Compound (Id), (E)-N-((3-hydroxy-5-(hydroxymethyl)-2-methylpyridin-4-yl)-methyl)-3-(4-hydroxyphenyl)-acrylamide] | partly protected | clearly reduced with respect to the irradiated control sample | – | – | –
C[C@@H]1C[C@H]2[C@@H]3CCC4=CC(=O)C=C[C@]4(C)[C@@]3(F)[C@@H](O)C[C@]2(C)[C@@]1(O)C(=O)CO [Dexamethasone, dexamethasone, reference compound] | – | – | – | 0.13 optical density | –
O.O.O=c1c(O)c(-c2ccc(O)c(O)c2)oc2cc(O)cc(O)c12 [Quercetin, quercetin dihydrate, reference compound] | – | – | – | – | 207589.6
O=C(O)/C=C/c1ccc(O)c(O)c1 [caffeic acid, reference compound] | phenotype of the irradiated sample is also found | level similar to the irradiated sample | 73% | – | –
Cc1ncc(CO)c(CN)c1O [pyridoxamine, reference compound] | phenotype of the irradiated sample is also found | level similar to the irradiated sample | – | – | –
